Earlier results as cited in article PMC6203792, “An IL13Rα2 peptide exhibits therapeutic activity against metastatic colorectal cancer” (British Journal of Cancer, 2018).
pKd: −log10 of the molar value.

Molecular target: IL13Rα2
Details: read-out: affinity of IL-13/IL13Rα2 molecular recognition

pKd: ~9.30
Substance: IL-13: Recombinant human IL-13
